Patent US5958873A, “Oral formulation for treatment of bacteria-induced diseases of the colon” (University of Cincinnati, priority 1997, dated 1999)
Values after ≈ are worked out from the molar mass of the structure shown.

How the values were obtained:
Bacteroides fragilis = assay: In vitro MIC against clinical isolates of B. fragilis (same agar method); type: cell-based; settings: 23 clinical isolates of B. fragilis; calculated geometrically
C. difficile = assay: In vitro MIC against clinical isolates of C. difficile (Brucella agar with sheep's blood, anaerobic); type: cell-based, Clostridium difficile

Compound | MIC50 (Bacteroides fragilis) [μml] | MIC90 (Bacteroides fragilis) [μml] | MIC range (C. difficile; 60 clinical isolates of C. difficile) | MIC50 (C. difficile) [µg/mL] | MIC90 (C. difficile) [µg/mL] | MIC range (C. difficile; in µg/mL)
CCC[C@@H]1C[C@@H](C(=O)N[C@@H]([C@H]2O[C@H](SC)[C@H](O)[C@@H](O)[C@H]2O)[C@H](C)Cl)N(C)C1 [clindamycin] | 55 | 13 |  |  |  | 
Cc1ncc([N+](=O)[O-])n1CCO [metronidazole] | 1.4 | 2 | 0.25-4 μml |  |  | 
CN[C@H](CC(C)C)C(=O)N[C@H]1C(=O)N[C@@H](CC(N)=O)C(=O)N[C@H]2C(=O)N[C@H]3C(=O)N[C@H](C(=O)N[C@H](C(=O)O)c4cc(O)cc(O)c4-c4cc3ccc4O)[C@H](O)c3ccc(c(Cl)c3)Oc3cc2cc(c3O[C@@H]2O[C@H](CO)[C@@H](O)[C@H](O)[C@H]2O[C@H]2C[C@](C)(N)[C@H](O)[C@H](C)O2)Oc2ccc(cc2Cl)[C@H]1O [vancomycin] |  |  |  | 0.38 (≈ 0.262 µM) | 0.8 (≈ 0.552 µM) | 0.13-2
